The source of these data is patent publication US5389661A, “Imidazole and 1,2,4-triazole derivatives with angiotensin II antagonist properties” (Warner-Lambert Company, priority 1994, dated 1995).

The target in the test is T1, angiotensin II receptor (rat liver membranes) (Rattus norvegicus, UniProt P25095).
T1 construct: from tissue; host or cells: rat liver membranes
T1 sequence (P25095 1-359): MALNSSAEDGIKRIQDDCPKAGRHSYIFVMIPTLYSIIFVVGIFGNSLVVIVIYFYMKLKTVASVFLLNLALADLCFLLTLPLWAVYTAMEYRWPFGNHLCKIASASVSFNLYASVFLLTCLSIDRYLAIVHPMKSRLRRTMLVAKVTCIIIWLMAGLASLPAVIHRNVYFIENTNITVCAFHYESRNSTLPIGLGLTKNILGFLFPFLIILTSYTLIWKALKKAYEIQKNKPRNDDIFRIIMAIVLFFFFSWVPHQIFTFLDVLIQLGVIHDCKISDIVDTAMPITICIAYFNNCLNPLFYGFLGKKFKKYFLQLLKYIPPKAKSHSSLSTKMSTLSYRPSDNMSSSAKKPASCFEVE
As to the kind of experiment: RBAT1, Receptor Binding of Angiotensin II: inhibition of tritiated angiotensin II binding to rat liver membranes. The settings on record: in vitro. How it is done: The effectiveness of the compounds of the instant invention is determined by a test (RBAT1) entitled Receptor Binding of Angiotensin II.

As to `CCCCN1C(=O)/C(=C/c2c(-n3cccc3)nc(CCC)n2Cc2ccc(C(=O)OC)cc2)c2ccccc21` [Example 4, Benzoic acid, 4-[[5-[(1-butyl-2,3-dihydro-2-oxo-1H-indol-3-ylidene)methyl]-2=propyl-4=(1H-pyrrol-1-yl)-1H-imidazol-1-yl]methyl]-, methyl ester, (E)], the IC50 was 590 nM.
